Measured values as given in US4395404A, “Synthetic thymosin β3 and β4 analogues” (George Washington University, priority 1982, dated 1983).
Where no end group is shown, it is not given here.

Key:
[1] = tested on: Peritoneal exudate cells (PEC) from guinea pig; assay: Macrophage Migration Inhibitory Factor (MIF) assay, nonspecific inhibition of macrophage migration; assay type: cell-based, Hartley strain guinea pigs; conditions: less than 20% considered insignificant
Method: The standardized Macrophage Migration Inhibitory Factor (MIF) assay for natural thymosin β4, synthetic thymosin β4, compounds of formula XVI, (designated C12 β3), formula VI (designated C8 β4), formula IV (designated C10 β4), and formula VIII (designated C6 β4) was performed following the method of Thurman, et al., Lymphokines and Thymic Hormones: Their Potential Utilization in Cancer Therapeutics, ed. by Goldstein and Chirigos, Raven Press, New York, pp 145-157 (1981). Peritoneal exudate cells (PEC) from guinea pig were prepared in Hartley strain guinea pigs by injecting 20-30 ml of sterile mineral oil 3-5 days prior to the assay. On the day of the assay, the guinea pigs were anesthetized and injected i.p. with 50 ml of RPMI-1640. Following abdominal massage, the peritoneum was opened with a one inch incision in the umbilical region and the peritoneal fluids withdrawn. The peritoneal fluids were centrifuged at 200×g for 10 min and the pelleted cells resuspended in a small volume of RPMI for transfer to clean tubes. Following three more washes, the cells were resuspended, counted and adjusted to 45×10^6/ml for use. In some experiments mouse PEC were used in place of guinea pig PEC. The mouse PEC were induced in BALB/c normal or nude mice by injecting 1 ml of mineral oil i.p. 3 days prior obtaining the cells by washing the peritoneum with 5 ml of RPMI 1640. In some experiments macrophage-like cell lines, WEHI-3 and FC-1, were used in place of PEC. The WEHI-3 cells migrate and have been reported to respond to migration inhibitory factor (MIF). Likewise, the FC-1 cells are also migratory and respond to MIF. […] The percent nonspecific inhibition (PNSI) was calculated as: [formula] […] Percent nonspecific inhibition of migration of less than 20% was also considered insignificant. The date from these experiments are compiled in Table 3.

[2] = tested on: TdT activity in thymocytes; assay: In vivo effect on TdT activity in thymocytes of hydrocortisone acetate (HCA) treated mice; set-up: species or system C57B1/6J mice; conditions: for TdT Specific Activity: daily for 11 days after 1.25 mg HCA at day 0, HCA-saline 6.4, normal 8.9; for TdT % Increase over HCA-saline: daily for 11 days after HCA
Method: The in vivo effect of thymosin fractions, i.e. thymosin β3 (designated HCA-thymosin β3), thymosin β4 (designated HCA-thymosin β4), thymosin fraction 5 (designated HCA-thymosin fr 5), compound of formula VI (designated HCA-synthetic C8 β4) and compound of formula XVI (designated HCA-synthetic C12 β3, on TdT activity in thymocytes of hydrocortisone acetate (HCA) treated C57B1/6J mice was assayed and determined according to the method of Hu, et al., 38, 1079 (1979).
For TdT activity determination [(following the Hu et al method (supra)], a 1.25 mg HCA injection per animal was carried out at day zero (0). Each injection was followed by daily treatment of the animal with the thymosin fractions (supra) or controls, i.e. no HCA and HCA-saline, for eleven (11) consecutive days. The increase in TdT specific activity (nmoles of dGTP incorporated per 10^8 thymocytes per hour) over that of HCA-saline treated animals was determined, the data compiled in columns 1-4 of Table 2.

Splenic lymphocytes = assay: In vivo restoration of splenic mitogenic responses in HCA suppressed mice (tritiated thymidine incorporation); set-up: species or system C57B1/6J mice; conditions: for Mitogens PHA-P (cpm): HCA-saline 12,000, normal 30,000; for Mitogens Con A (cpm): HCA-saline 86,000, normal 210,000
Method: The in vivo effect of thymosin fractions (supra) on restoration of splenic mitogenic responses in HCA suppressed C57B1/6J mice was assayed and determined by the following method.
Splenic lymphocytes were removed sterilly, placed in plastic petri dishes containing RPMI 1640 (with 25 mM HEPES buffer, 100 μ/ml penicillin, 100 μg/ml streptomycin and 2mM L-glutamine) and a 64-mesh stainless steel wire screen. Single cell suspensions were obtained by further passage through a 25 GA needle. The cells were washed twice, counted using a Coulter Counter Model A and suspended to give a concentration of 6×10^6 leukocytes/ml. Cultures were prepared in flat bottom 96 well microtiter plates by placing 0.10 ml of the cell suspension into each well plus 0.05 ml 20% heat inactivated fetal calf serum (FCS) (resulting in 6×10^5 cells/well in 5% FCS final). Control cultures received 0.05 ml of RPMI 1640, and the stimulated cultures received 0.025 ml of RPMI 1640 containing various concentrations of thymosin and 0.025 ml of various concentrations of PHA-P (Difco, Detroit, Michigan), Con-A (Calbiochem, Oxnard, California), PWM (GIBCO, Grand Island, New York) or E. coli LPS (Difco, Detroit, Michigan) all made up in RPMI 1640. Cultures were pulsed by adding 1 uCi tritiated thymidine, 1.9 Ci/mM (Schwartz/Mann,Orangeburg, New Jersey), in 0.02 ml of RPMI 1640 8 hours before culture termination. Cultures were harvested utilizing a Multiple-Automated Sample Harvester (Microbiological Associates, Bethesda, Maryland). The resulting filter spots were dried and placed in glass liquid scintillation mini-vials to which was added 1 ml of scintillation cocktail. The vials were stoppered and the tritiated thymidine incorporation analyzed by scintillation spectrophotometry on an LKB liquid scintillation counter to provide Con A (cpm) and PHA-P (cpm). Processing of the data and necessary statistical tests were performed on a Wang 700 C Advanced Programming Calculator (Wang Labs, Tewksbury, Massachusetts) and are compiled in columns 1-2 and 5-6 of Table 2.

T-cell populations = conditions: partially purified; Low and Goldstein 1978; cited from earlier work
[3] = tested on: TdT positive cells in the thymus; conditions: following steroid induced immunosuppression; Low et al. 1981; cited from earlier work
macrophages = conditions: Thurman et al. 1981; cited from earlier work

Substance | PNSI (percent nonspecific inhibition of macrophage migration) ([1]; 0.0005 nmoles/ml) | PNSI (percent nonspecific inhibition of macrophage migration) ([1]; 0.005 nmoles/ml) | PNSI (percent nonspecific inhibition of macrophage migration) ([1]; 0.05 nmoles/ml) | PNSI (percent nonspecific inhibition of macrophage migration) ([1]; 0.5 nmoles/ml) | TdT Specific Activity ([2]; 10 μg/injection) | TdT % Increase over HCA-saline ([2]; 10 μg/injection) | Mitogens PHA-P (cpm) (Splenic lymphocytes; 10 μg/injection) | Mitogens Con A (cpm) (Splenic lymphocytes; 10 μg/injection) | TdT Specific Activity ([2]; 1 μg/injection) | TdT % Increase over HCA-saline ([2]; 1 μg/injection) | Mitogens PHA-P (cpm) (Splenic lymphocytes; 1 μg/injection) | Mitogens Con A (cpm) (Splenic lymphocytes; 1 μg/injection) | Induction of TdT positive cells in T-cell populations (T-cell populations) | Reappearance of TdT positive cells in the thymus [3] | Migration of macrophages (macrophages)
IEQEKQQAGES [C10 β4, L-Isoleucyl-L-glutamyl-L-glutaminyl-L-glutamyl-L-lysyl-L-glutaminyl-L-glutaminyl-L-alanyl-glycyl-L-glutamyl-L-serine] | -5.3% | 10.7% | 18.8% | 21.6% | – | – | – | – | – | – | – | – | – | – | –
QAGESDEITAKT [C12 β3, L-Glutaminyl-L-alanyl-glycyl-L-glutamyl-L-seryl-L-aspartyl-L-glutamyl-L-isoleucyl-L-threonyl-L-alanyl-L-lysyl-L-threonine] | 23.5% | 24.7% | 29.7% | 30.2% | 8.2 nmoles of dGTP incorporated pe | 28% | 65,000 cpm | 110,000 cpm | – | – | – | – | – | – | –
Synthetic thymosin β4: synthetic thymosin β4, tested beside natural thymosin β4 in the MIF assay (SDKPDMAEIEKFDKSKLKKTETQEKNPLPSKETIEQEKQAGES; Thymosin beta-4 synthetic; UniProt P62328 2-44, looked up) [reference compound] | – | 25.0% | 25.9% | 30.3% | – | – | – | – | – | – | – | – | – | – | –
QEKQAGES [C8 β4, L-glutaminyl-L-glutamyl-L-lysyl-L-glutaminyl-L-alanyl-glycyl-L-glutamyl-L-serine] | 5.5% | 27.0% | 25.4% | 24.1% | 7.6 nmoles of dGTP incorporated pe | 19% | 11,000 cpm | 140,000 cpm | – | – | – | – | – | – | –
thymosin β4 [Natural thymosin β4, reference compound] | – | 23.1% | 29.2% | 37.6% | – | – | – | – | 8.8 nmoles of dGTP incorporated pe | 38% | 10,000 cpm | 125,000 cpm | induce TdT positive cells | accelerate the reappearance of TdT positive cells in the thymus | inhibit the migration of macrophages
thymosin β3 [HCA--Thymosin β3, reference compound] | – | – | – | – | – | – | – | – | 9.7 nmoles of dGTP incorporated pe | 52% | 27,000 cpm | 120,000 cpm | induce TdT positive cells | accelerate the reappearance of TdT positive cells in the thymus | inhibit the migration of macrophages
KQAGES [C6 β4, L-Lysyl-L-glutaminyl-L-alanyl-glycyl-L-glutamyl-L-serine] | 3.1% | -5.1% | 15.2% | 18.3% | – | – | – | – | – | – | – | – | – | – | –
